The results in this text go back to patent US5494922A, “Allophanic acid derivatives” (Zeneca Limited, priority 1993, dated 1996).

Usually IC50 stands for the concentration at which inhibition is half-maximal. Lower therefore signals higher potency.

Molecules are shown by their SMILES. Structures can show the parent of a compound that is named as a salt.

Assay [1] deals with T1, purified human platelet fibrinogen receptor (GPIIb/IIIa) (Homo sapiens, UniProt P05106+P08514).
T1 construct: Glycoprotein IIb/IIIa is isolated from human platelet lysates; from tissue
T1 sequence (P08514 32-887 limits assumed): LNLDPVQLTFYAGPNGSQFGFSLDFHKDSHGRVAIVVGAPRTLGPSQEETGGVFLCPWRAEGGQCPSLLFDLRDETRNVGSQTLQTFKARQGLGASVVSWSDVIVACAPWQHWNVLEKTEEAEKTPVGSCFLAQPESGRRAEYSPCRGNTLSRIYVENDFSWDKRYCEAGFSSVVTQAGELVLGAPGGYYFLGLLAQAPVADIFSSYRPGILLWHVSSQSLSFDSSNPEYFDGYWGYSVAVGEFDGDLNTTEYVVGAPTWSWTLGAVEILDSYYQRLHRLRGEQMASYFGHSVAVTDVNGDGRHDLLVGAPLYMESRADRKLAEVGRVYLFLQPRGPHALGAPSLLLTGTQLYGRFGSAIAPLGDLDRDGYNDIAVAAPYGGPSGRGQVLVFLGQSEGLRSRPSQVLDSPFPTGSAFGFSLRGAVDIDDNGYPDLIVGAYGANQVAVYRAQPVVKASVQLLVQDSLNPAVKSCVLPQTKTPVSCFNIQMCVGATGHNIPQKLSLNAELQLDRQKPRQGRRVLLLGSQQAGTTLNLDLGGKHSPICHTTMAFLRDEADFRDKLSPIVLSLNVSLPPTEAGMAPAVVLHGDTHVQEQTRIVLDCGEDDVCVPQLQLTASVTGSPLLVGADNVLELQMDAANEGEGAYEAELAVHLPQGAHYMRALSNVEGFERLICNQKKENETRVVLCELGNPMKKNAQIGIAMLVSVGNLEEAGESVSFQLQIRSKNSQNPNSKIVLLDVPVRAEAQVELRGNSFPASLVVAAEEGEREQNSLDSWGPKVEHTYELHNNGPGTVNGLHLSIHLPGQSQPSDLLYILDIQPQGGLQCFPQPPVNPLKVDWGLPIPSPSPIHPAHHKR
T1 sequence (P08514 891-1039 limits assumed): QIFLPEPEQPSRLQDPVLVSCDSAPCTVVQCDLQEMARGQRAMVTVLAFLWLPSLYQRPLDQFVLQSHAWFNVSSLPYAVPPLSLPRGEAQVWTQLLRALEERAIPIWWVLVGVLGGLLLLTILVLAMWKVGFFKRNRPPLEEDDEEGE
T1 sequence (P05106 27-788): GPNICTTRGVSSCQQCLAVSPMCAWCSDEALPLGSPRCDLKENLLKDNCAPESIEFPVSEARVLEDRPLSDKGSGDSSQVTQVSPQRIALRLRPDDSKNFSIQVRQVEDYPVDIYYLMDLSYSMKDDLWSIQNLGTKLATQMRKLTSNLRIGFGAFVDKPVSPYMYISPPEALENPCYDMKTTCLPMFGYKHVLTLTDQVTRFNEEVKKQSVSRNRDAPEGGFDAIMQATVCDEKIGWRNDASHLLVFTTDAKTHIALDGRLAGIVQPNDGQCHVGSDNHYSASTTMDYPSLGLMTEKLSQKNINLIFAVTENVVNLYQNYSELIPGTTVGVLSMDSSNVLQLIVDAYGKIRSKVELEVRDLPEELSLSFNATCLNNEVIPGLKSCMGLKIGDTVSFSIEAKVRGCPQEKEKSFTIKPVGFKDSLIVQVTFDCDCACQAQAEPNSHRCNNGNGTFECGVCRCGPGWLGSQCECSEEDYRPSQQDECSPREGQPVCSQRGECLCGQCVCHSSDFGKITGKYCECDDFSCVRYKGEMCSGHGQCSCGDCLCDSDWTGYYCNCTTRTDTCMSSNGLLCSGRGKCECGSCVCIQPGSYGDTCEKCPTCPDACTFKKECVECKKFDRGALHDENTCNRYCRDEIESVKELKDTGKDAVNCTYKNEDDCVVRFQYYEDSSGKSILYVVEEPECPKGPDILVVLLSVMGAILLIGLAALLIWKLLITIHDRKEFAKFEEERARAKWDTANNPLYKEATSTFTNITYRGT
Briefly: test (b): GPIIb/IIIa ELISA, inhibition of biotinylated fibrinogen binding. To be noted: 50% inhibition of biotinylated fibrinogen binding to GPIIb/IIIa. As for the experimental part:
(i) Preparation of human platelet lysates
Platelet rich plasma (prp) is harvested by centrifugation (1000 rpm, 15 minutes) of whole blood anticoagulated with acid citrate dextrose (trisodium citrate 85 mM, citric acid 70 mM, d-glucose 110 mM) 1 part to 6 parts blood. Prostacyclin (PGI2, 1 μM) is added to the prp before centrifugation (2400 rpm, 15 min) and the resulting pellet is resuspended in modified Tyrodes' solution (NaCl 130 mM, […], NaHCO3, 12 mM, NaH2 PO4 0.5 mM, MgCl2 1 mM, CaCl2 20 mM, Glucose 12 mM, HEPES 5 mM) containing bovine serum albumin 3.5 g/L, PGI2 1 μM and hirudin 0.5 U/ml. The platelet suspension is centrifuged (2400 rpm, 15 minutes) and the resultant pellet resuspended in 500 μl of lysis buffer (octyl glucoside 50 mM, HEPES 10 mM, NaCl 150 mM, CaCl2 1 mM, MgCl2 1 mM, PMSF 1 mM, NEM 10 mM, leupeptin 0.1 mM), agitated at 4° C. for 15 minutes then centrifuged at 24000 rpm, 15 minutes. The supernatant is stored at 4° C. and the pellet re-suspended in 500 μl of lysis buffer. […]
96 well microtitre plates are coated with 100 μl purified human platelet fibrinogen receptor (GPIIb/IIIa) diluted in coating buffer (Tris-HCl 20 mM, NaCl 150 mM, CaCl2 1 mM, pH 7.4) and left overnight at 4° C. […] Colour is allowed to develop for 10-15 minutes before optical densities are read at 650 nm. […]

Assay [2] concerns the target T2, human, citrated, platelet-rich plasma (Homo sapiens, UniProt P05106+P08514).
T2 construct: aggregating human, citrated, platelet-rich plasma; endogenous in cells; host or cells: human platelets in citrated platelet-rich plasma
Briefly: test (a): inhibition of ADP stimulated platelet aggregation in human, citrated, platelet-rich plasma. It is filed as cell-based. The settings on record: read-out: pA2 (converted). The text has this:
(i) aggregating human, citrated, platelet-rich plasma by addition of adenosine diphosphate (ADP) so as to generate a dose-response curve;
(ii) generating a dose-response curve for ADP stimulated platelet aggregation in the presence of increasing amounts of a test compound (generally in the range 10^-5 M to 10^-10 M); and
(iii) calculating a pA2 value indicating potency of platelet aggregation inhibition for the test compound, averaged over several concentrations, from the calculated 50% response value for ADP aggregation in the presence and absence of the test compound.

T2 sequence (P08514 32-887 limits assumed): as the sequence (P08514 32-887 limits assumed) above
T2 sequence (P08514 891-1039 limits assumed): as the sequence (P08514 891-1039 limits assumed) above
T2 sequence (P05106 27-788): as the sequence (P05106 27-788) above

In assay [1], `COC(=O)COc1ccc(C(=O)NC(=O)Nc2ccc(C(=N)N)cc2)cc1` [Example 1, Methyl 4-[4-(4-amidinophenyl)allophoyl]phenoxyacetate, acetate salt] showed an IC50 of 0.126 µM. The Kb in assay [2] is 0.0316 µM.

In assay [1], `N=C(N)c1ccc(NC(=O)NC(=O)c2ccc(OCC(=O)O)cc2)cc1` [Example 2, 4-[4-(4-Amidinophenyl)allophanoyl]phenoxyacetic acid] had a half-inhibitory concentration (IC50) of 0.0251 µM. The Kb in assay [2] is 0.0251 µM.
